From publication PMC10452181, “Synthesis and Biological Evaluation of Cyclobutane-Based β3 Integrin Antagonists: A Novel Approach to Targeting Integrins for Cancer Therapy” (Cancers, 2023)

How the values were obtained:
Sk-Mel-2 = test: in vitro; type: cell-based, human
Procedure: Before use in cell-based assays of integrin function, the effect of compounds on cell proliferation was tested using the MTT assay to avoid adhesion results being confounded by cell death (Supplementary Table S1). The effect of compounds on cell adhesion was then initially tested at a single, nontoxic concentration to identify active antagonists for further characterisation; those displaying a promising activity in the adhesion assay were tested at a wider range of concentrations to determine the IC50 (Table 2). […] Nevertheless, it is a cost-effective initial screening method. page 4: Table S1. Cytotoxicity of compounds on the cell lines used in the functional assays (measured by MTT assay). Cells (2000 cells/well for Sk-Mel-2; 1 x 10^4 cells/mL for M14) were incubated for 96 hours at 37 ° C in a total volume of 200 μL/well (180 μL medium + 20 μ L test compound solution). After 96 hours, the medium was replaced by fresh medium containing 0.5 mg/ml (end conc.) MTT per well, incubated for 4 h then the plate processed and read as described in the main text. […] ICT9053 41 naphthyridine 1 NHSO2Mes H Ester 52.6 ± 0.6 72.7 ± 9.8 ICT9065 42 naphthyridine 1 H H Ester >100 - ICT9079 43 naphthyridine 0 NHSO2Mes H Ester ~100 - ICT9061 44 naphthyridineT 1 NHSO2Mes H Ester 46.8 ± 10.7 - […] Ester 65.4 ± 11.1 >100 […] Ester 9.6 ± 5.7 >100 […] Ester >100 - […] Ester 54.6 ± 11.0 - […] Ester >5 3.3 ± 0.8 […] ICT9028 51 pyrimidine 2 NHSO2Ph H Acid >100 - ICT9031 52 pyrimidineT 1 NHSO2Mes H Acid >100 - ICT9090 53 pyrimidineT 2 NHSO2Mes H Acid >50 - ICT9029 54 pyrimidineT 2 NHSO2Ph H Acid >100 - ICT9063 55 naphthyridine 1 NHSO2Mes H Acid 61.7 ± 2.8 - […] Acid 45.5 ± 7.9 >100 […] 42.5 ± 1.8 >50 RGDS >50 - T trans configuration of cyclobutane sidechains.

αvβ3 = target: T1, αvβ3 (Homo sapiens, UniProt P05106+P06756); test: Sk-Mel-2 cell adhesion to immobilised fibronectin (cell-binding assay, MTT readout); type: cell-based; conditions: Sk-Mel-2 adhesion to Fn, mean ± SD
T1 construct: endogenous in cells; host or cells: SK-Mel-2 melanoma cells
Procedure: First, 96-well plates (Corning, VWR) were coated overnight at 4 °C with 0.5 μg/well fibronectin (Sigma). SK-Mel-2 cells were trypsinised, washed and resuspended in RPMI medium only at 10^5 cells/mL. Cells (100 µL/well) were treated with compound (DMSO final concentration 0.1%) at the indicated concentration for 4 hrs on a rotary shaker. Plates were washed (3 × PBS) and blocked with PBS/5% BSA for 2 hrs at 37 °C prior to adding the cells. Cells were incubated on the plates at 37 °C in a humidified chamber with 5% CO2 for 1 hr. The plates were washed 3× with PBS and a 200 µL/well RPMI medium containing 10% FCS added. The plates were incubated overnight at 37 °C as above. Finally, 0.5 mg/mL of 3-(4,5-dimethythiazol-2-yl)-2,5-diphenyl tetrazolium bromide (MTT) was added to each well and the plates incubated for a further 4 h. The medium was removed, and the insoluble formazan dissolved in 150 µL of DMSO. Absorbance was measured at 540 nm using a Thermo Multiskan EX (Thermofisher, UK)and Ascent Software (v2.6). Total binding was determined based on controls lacking any compounds (100% binding) in fibronectin-coated wells and uncoated wells blocked with BSA (0% binding) and corrected for background (no cells, fibronectin-coated).
As an initial test of anti-β3 activity, the ability of compounds to inhibit the adhesion of melanoma cells expressing high levels of αvβ3 and low levels of other RGD-binding integrins such as αvβ5 and α5β1 to immobilised fibronectin was evaluated.
Cells were seeded onto precoated plates in the presence or absence of putative antagonists and the number of adherent cells quantified colorimetrically.

αIIbβ3 = target: T2, αIIbβ3 (Homo sapiens, UniProt P05106+P08514); test: αIIbβ3/fibrinogen purified protein binding ELISA; conditions: mean ± SD; for IC50: read-out: IC50 (αIIbβ3/Fg)
T2 construct: purchased Sigma
Procedure: ELISA assays were performed as previously described with minor modifications. Briefly, serial dilutions of compounds were prepared in dimethyl sulfoxide (DMSO). C8 Maxi Immuno modules (Fisher Scientific) were incubated overnight at 4 °C with 0.5 μg/well of fibrinogen (Sigma) in sterile phosphate buffered saline (PBS, 0.2 g/L KCl, 8.0 g/L NaCl, 0.2 KH2PO4, 1.15 g/L Na2HPO4, pH 7.4). All subsequent wash steps were performed using 25 mM Tris, pH 7.6, 150 mM NaCl, 1 mM MnCl2, 1 mg/mL BSA, and binding/inhibition was carried out in 25 mM Tris, pH 7.6, 150 mM NaCl, 1 mM MnCl2, 1 mM MgCl2, 1 mM CaCl2, 1 mg/mL BSA.
Wells were washed and blocked with a blocking solution (PBS, 0.1% Tween 20, 3% BSA) for 1 h at 37 °C. Compounds were added to the wells at indicated concentrations (final 0.5% DMSO) in the presence of 0.5 µg/well αIIbβ3 (Sigma) and incubated at room temp for 1 h. After 3 washes, primary anti-αIIb (1:200 dilution, Santa Cruz Biotech, Heidelberg, Germany) and antigoat–HRP (1:500 dilution, Dako, Agilent, Santa Clara, CA, USA) were added at room temp for 1 h. The wells were washed and incubated with 0.1 mg/mL tetra-methylbenzidine (Sigma) for 25 min and the reaction was stopped with 1N H2SO4 (100 μL/well). The absorbance was measured at 450 nm using a Multiscan Spectrum reader (Thermo Scientific, Thermofisher, UK) and SkanIT RE (v2.4.4.5) software. Results were plotted as percent binding vs. log concentration and IC50 values determined.

T1 sequence (P06756 31-889 limits assumed): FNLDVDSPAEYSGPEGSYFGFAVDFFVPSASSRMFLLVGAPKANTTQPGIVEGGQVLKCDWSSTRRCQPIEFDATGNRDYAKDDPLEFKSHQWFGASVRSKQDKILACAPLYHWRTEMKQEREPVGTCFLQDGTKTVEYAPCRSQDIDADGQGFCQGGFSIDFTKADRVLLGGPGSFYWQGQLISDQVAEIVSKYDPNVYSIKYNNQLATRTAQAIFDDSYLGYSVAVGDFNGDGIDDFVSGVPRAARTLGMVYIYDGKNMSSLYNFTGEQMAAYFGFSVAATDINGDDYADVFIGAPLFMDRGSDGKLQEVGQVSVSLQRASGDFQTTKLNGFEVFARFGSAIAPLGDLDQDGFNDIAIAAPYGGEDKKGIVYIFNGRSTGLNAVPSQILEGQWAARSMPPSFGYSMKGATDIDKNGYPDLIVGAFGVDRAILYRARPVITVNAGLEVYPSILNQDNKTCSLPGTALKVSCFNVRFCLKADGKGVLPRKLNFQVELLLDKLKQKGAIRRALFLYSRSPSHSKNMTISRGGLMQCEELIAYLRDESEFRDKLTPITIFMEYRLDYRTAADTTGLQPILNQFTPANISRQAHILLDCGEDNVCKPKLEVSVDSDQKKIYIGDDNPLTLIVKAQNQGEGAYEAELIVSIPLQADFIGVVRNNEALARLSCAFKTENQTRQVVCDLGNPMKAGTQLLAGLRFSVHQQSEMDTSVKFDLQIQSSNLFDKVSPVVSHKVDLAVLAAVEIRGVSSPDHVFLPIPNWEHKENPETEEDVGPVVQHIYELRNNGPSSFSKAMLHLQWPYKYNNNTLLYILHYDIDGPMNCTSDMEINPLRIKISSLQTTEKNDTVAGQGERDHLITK
T1 sequence (P06756 891-1048 partner limits assumed): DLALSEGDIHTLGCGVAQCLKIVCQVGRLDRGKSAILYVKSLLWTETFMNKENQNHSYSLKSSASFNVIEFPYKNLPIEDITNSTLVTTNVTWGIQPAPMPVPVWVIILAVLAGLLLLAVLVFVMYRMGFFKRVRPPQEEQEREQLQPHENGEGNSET
T1 sequence (P05106 27-788): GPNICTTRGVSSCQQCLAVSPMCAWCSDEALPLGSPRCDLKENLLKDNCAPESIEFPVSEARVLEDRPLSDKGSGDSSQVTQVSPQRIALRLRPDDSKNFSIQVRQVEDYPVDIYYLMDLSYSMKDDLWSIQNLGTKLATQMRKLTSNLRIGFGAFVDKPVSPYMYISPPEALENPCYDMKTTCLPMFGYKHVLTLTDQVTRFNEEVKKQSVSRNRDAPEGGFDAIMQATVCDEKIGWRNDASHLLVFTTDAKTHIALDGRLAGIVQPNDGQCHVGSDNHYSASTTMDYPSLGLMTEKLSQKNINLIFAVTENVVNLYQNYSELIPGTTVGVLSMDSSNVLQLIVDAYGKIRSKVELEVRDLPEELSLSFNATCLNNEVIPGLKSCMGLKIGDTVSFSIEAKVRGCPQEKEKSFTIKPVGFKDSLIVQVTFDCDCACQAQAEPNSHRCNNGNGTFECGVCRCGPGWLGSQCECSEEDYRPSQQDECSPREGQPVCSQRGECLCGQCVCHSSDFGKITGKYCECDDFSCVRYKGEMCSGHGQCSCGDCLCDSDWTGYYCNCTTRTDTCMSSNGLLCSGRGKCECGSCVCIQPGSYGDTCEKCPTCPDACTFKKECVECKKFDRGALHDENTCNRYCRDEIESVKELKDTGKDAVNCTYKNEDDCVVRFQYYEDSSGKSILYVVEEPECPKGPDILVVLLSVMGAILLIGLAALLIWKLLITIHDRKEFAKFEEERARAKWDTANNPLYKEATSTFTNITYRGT
T2 sequence (P08514 32-887 limits assumed): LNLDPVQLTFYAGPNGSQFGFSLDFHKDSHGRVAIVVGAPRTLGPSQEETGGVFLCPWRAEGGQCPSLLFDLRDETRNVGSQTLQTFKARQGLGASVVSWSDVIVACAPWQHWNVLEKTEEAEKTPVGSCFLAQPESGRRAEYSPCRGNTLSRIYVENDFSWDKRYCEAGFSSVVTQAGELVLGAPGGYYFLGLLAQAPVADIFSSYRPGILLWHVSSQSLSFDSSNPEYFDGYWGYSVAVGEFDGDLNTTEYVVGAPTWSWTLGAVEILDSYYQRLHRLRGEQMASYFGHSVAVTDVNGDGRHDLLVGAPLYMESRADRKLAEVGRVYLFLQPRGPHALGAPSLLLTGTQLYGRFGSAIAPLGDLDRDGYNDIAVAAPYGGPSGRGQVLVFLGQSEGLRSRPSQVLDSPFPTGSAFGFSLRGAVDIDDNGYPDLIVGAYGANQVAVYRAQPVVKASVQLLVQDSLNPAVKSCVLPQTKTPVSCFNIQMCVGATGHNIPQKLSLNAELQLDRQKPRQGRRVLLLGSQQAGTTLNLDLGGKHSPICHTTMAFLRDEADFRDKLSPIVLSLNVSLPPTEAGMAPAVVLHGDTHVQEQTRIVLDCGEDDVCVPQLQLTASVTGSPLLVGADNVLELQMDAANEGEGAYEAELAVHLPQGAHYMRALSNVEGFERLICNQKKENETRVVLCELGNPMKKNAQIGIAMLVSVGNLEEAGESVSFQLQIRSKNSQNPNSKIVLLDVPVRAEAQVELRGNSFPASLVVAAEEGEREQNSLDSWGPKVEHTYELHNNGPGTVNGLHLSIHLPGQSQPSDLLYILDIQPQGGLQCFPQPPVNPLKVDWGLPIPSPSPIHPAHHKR
T2 sequence (P08514 891-1039 partner limits assumed): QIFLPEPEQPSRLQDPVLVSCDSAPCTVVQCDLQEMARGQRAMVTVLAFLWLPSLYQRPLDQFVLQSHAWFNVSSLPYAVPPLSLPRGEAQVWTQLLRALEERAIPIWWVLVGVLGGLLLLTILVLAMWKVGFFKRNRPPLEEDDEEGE
T2 sequence (P05106 27-788): as the sequence (P05106 27-788) above

| IC50 (Sk-Mel-2) [µM] | Adhesion % Inhibition @ 50 μM (αvβ3) [%] | % Inhibition (αIIbβ3/Fg) @ 50 μM (αIIbβ3) [%] | IC50 (αIIbβ3) [µM] | Adhesion % Inhibition @ 5 μM (αvβ3) [%] | IC50 (αvβ3) [µM] | Structure (SMILES) |
| --- | --- | --- | --- | --- | --- | --- |
| > 100 | 22.2 ± 22.3 |  |  |  |  | COC(=O)[C@@H](CNC(=O)[C@H]1C[C@@H](CCCNc2ncccn2)C1)NS(=O)(=O)c1ccccc1 [ICT9021 25, (R)-methyl 2-(phenylsulfonamido)-3-((1r,3s)-3-(3-(pyrimidin-2-ylamino)propyl)cyclobutanecarboxamido)propanoate] |
| 55.3 ± 1.6 | 92.5 ± 8.1 | 35.0 ± 11.3 | > 100 | 0 ± 19.6 | 38 ± 11 | COC(=O)[C@H](CNC(=O)[C@H]1C[C@@H](CCCNc2ncccn2)C1)NS(=O)(=O)c1c(C)cc(C)cc1C [ICT9025 28, (S)-methyl 3-((1s,3s)-3-(3-(pyrimidin-2-ylamino)propyl)cyclobutanecarboxamido)-2-(2,4,6-trimethylphenylsulfonamido)propanoate] |
| > 100 | 22.4 ± 29.3 |  |  |  |  | COC(=O)CCNC(=O)[C@H]1C[C@@H](CCc2ccc3c(n2)NCCC3)C1 [ICT9066 47, Methyl 3-((1r,3s)-3-(2-(5,6,7,8-tetrahydro-1,8-naphthyridin-2-yl)ethyl)cyclobutanecarboxamido)propanoate] |
| 55.9 ± 4.9 | 94.2 ± 4.1 | 33.5 ± 2.8 | 50 ± 5 | 39.4 ± 17.1 | 13 ± 3 | COC(=O)[C@H](CNC(=O)[C@H]1C[C@H](CCNc2ncccn2)C1)NS(=O)(=O)c1c(C)cc(C)cc1C [ICT9024 27, (S)-methyl 3-((1r,3s)-3-(2-(pyrimidin-2-ylamino)ethyl)cyclobutanecarboxamido)-2-(2,4,6-trimethylphenylsulfonamido)propanoate] |
| 65.2 ± 1.3 |  |  |  | 48.7 ± 30.6 |  | COC(=O)[C@H](CNC(=O)C1CC(CCc2ccc3cccnc3n2)C1)NS(=O)(=O)c1ccccc1 (stereo partly drawn) [ICT9054 40, (S)-methyl 3-((1r,3r)-3-(2-(1,8-naphthyridin-2-yl)ethyl)cyclobutanecarboxamido)-2-(phenylsulfonamido)propanoate] |
| 54.6 ± 11 |  |  |  | 61.5 ± 11.1 |  | COC(=O)[C@H](CNC(=O)C1CC(Cc2ccc3c(n2)NCCC3)C1)NS(=O)(=O)c1c(C)cc(C)cc1C (stereo partly drawn) [ICT9080 48, (S)-methyl 3-((1s,3r)-3-((5,6,7,8-tetrahydro-1,8-naphthyridin-2-yl)methyl)cyclobutanecarboxamido)-2-(2,4,6-trimethylphenylsulfonamido)propanoate] |
| 90.2 ± 4.3 | 51 ± 9.0 | 91.2 ± 9.6 | 3.5 ± 1.9 | 4.5 ± 19.6 | 50 ± 7 | Cc1cc(C)c(S(=O)(=O)N[C@@H](CNC(=O)C2CC(CCNc3ncccn3)C2)C(=O)O)c(C)c1 (stereo partly drawn) [ICT9030 50, (S)-3-((1s,3r)-3-(2-(pyrimidin-2-ylamino)ethyl)cyclobutanecarboxamido)-2-(2,4,6-trimethylphenylsulfonamido)propanoic acid] |
| > 100 | 31.8 ± 10.0 | 93.6 ± 2.2 | 7.8 ± 2.8 |  | > 50 | O=C(O)[C@H](CNC(=O)[C@H]1C[C@H](CCCNc2ncccn2)C1)NS(=O)(=O)c1ccccc1 [ICT9028 51, (S)-2-(phenylsulfonamido)-3-((1r,3r)-3-(3-(pyrimidin-2-ylamino)propyl)cyclobutanecarboxamido)propanoic acid] |
| > 100 | 7.4 ± 15.1 | 10.9 ± 15.4 |  |  |  | COC(=O)[C@H](CNC(=O)C1CC(CCCNc2ncccn2)C1)NS(=O)(=O)c1ccccc1 (stereo partly drawn) [ICT9023 23, (S)-methyl 2-(phenylsulfonamido)-3-((1r,3r)-3-(3-(pyrimidin-2-ylamino)propyl)cyclobutanecarboxamido)propanoate] |
| > 100 |  |  |  |  |  | COC(=O)CCNC(=O)C1CC(CCc2ccc3cccnc3n2)C1 (stereo not shown) [ICT9065 42, Methyl 3-((1r,3s)-3-(2-(1,8-naphthyridin-2-yl)ethyl)cyclobutanecarboxamido)propanoate] |
| > 100 |  | 31.6 ± 10.7 |  |  |  | COC(=O)[C@H](CNC(=O)[C@H]1C[C@@H](CCCNc2ncccn2)C1)NS(=O)(=O)c1ccccc1 [ICT9026 29, (S)-methyl 2-(phenylsulfonamido)-3-((1s,3s)-3-(3-(pyrimidin-2-ylamino)propyl)cyclobutanecarboxamido)propanoate] |
| ~100 |  |  |  | 33.5 ± 26.2 |  | COC(=O)[C@H](CNC(=O)C1CC(Cc2ccc3cccnc3n2)C1)NS(=O)(=O)c1c(C)cc(C)cc1C (stereo partly drawn) [ICT9079 43, (S)-methyl 3-((1s,3r)-3-((1,8-naphthyridin-2-yl)methyl)cyclobutanecarboxamido)-2-(2,4,6-trimethylphenylsulfonamido)propanoate] |
| > 100 | 42.5 ± 14.1 | 100 ± 6 | 3.3 ± 3.3 |  | > 50 | O=C(O)[C@H](CNC(=O)[C@H]1C[C@@H](CCCNc2ncccn2)C1)NS(=O)(=O)c1ccccc1 [ICT9029 54, (S)-2-(phenylsulfonamido)-3-((1s,3s)-3-(3-(pyrimidin-2-ylamino)propyl)cyclobutanecarboxamido)propanoic acid] |
| 46.8 ± 10.7 |  |  |  | 32.4 ± 16.1 |  | COC(=O)[C@H](CNC(=O)C1CC(CCc2ccc3cccnc3n2)C1)NS(=O)(=O)c1c(C)cc(C)cc1C (stereo partly drawn) [ICT9061 44, (S)-methyl 3-((1s,3s)-3-(2-(1,8-naphthyridin-2-yl)ethyl)cyclobutanecarboxamido)-2-(2,4,6-trimethylphenylsulfonamido)propanoate] |
